Test results from patent US9776989B2, “Chromone alkaloid dysoline for the treatment of cancer and inflammatory disorders” (Council of Scientific & Industrial Research, priority 2013, dated 2017).

Key:
Colo205 (colon) = experiment: MTT cell viability assay, Colo205; assay type: cell-based; conditions: Homo sapiens, COLO 205, 48 h treatment
Method: (§1) Anticancer activity of dysoline (1) along with rohitukine was evaluated using MTT cell viability assay on […] cancer cell lines viz. Colo205 (colon), HCT116 (colon), HT1080 (fibrosarcoma), NCIH322 (lung), A549 (lung), Molt-4 (leukemia) and HL60 (leukemia).
(§2) The cell were originated from The European Collection of Cell Cultures (ECACC, UK) and purchased through Sigma-Aldrich India.
(§3) The MTT assay was used to assess the effect of the test molecules on cell viability. Cell viability on eight cell lines viz. Colo205 (colon), HCT116 (colon), HT1080 (fibrosarcoma), NCIH322 (lung), A549 (lung), Molt-4 (leukemia) and HL60 (leukemia) was investigated. In each well of a 96-well plate, 3×10^3 cells were grown in 100 μL of medium. After 24 h, each test molecules were added to achieve a final concentration of 10 to 0.01 μmol/L, respectively. After 48 h of treatment, 20 μL of 2.5 mg/mL MTT (Organics Research, Inc.) solution in phosphate buffer saline was added to each well. After […], supernatant was removed and formazan crystals were dissolved in 200 μL of DMSO. Absorbance was then measured at 570 nm using an absorbance plate reader (Bio-Rad Microplate Reader). Data are expressed as the percentage of viable cells in treated relative to non-treated conditions. Each experiment was repeated thrice and data was expressed as mean±SD of three independent experiments (Mol. Cancer Ther. 2010, 9, 358-368).

HCT116 (colon) = experiment: MTT cell viability assay, HCT116; assay type: cell-based; conditions: Homo sapiens, HCT-116, 48 h treatment
Method: as §1, §2, §3

HT1080 (fibrosarcoma) = experiment: MTT cell viability assay, HT1080; assay type: cell-based; conditions: 48 h treatment
Method: as §1, §2, §3

NCIH322 (lung) = experiment: MTT cell viability assay, NCIH322; assay type: cell-based; conditions: NCI-H322, 48 h treatment
Method: as §1, §2, §3

A549 (lung) = experiment: MTT cell viability assay, A549; assay type: cell-based; conditions: Homo sapiens, 48 h treatment
Method: as §1, §2, §3

Molt-4 (leukemia) = experiment: MTT cell viability assay, MOLT-4; assay type: cell-based; conditions: Homo sapiens, 48 h treatment
Method: as §1, §2, §3

HL60 (leukemia) = experiment: MTT cell viability assay, HL-60; assay type: cell-based; conditions: Homo sapiens, HL-60 (leukemia), 48 h treatment
Method: as §1, §2, §3

TNF-α = experiment: Inhibition of TNF-α production in splenocytes (ELISA); assay type: cell-based, male Balb/c mice; conditions: Con A or LPS, 72 h; for inhibition at 0.01 µM / inhibition at 0.1 µM / inhibition at 1 µM / inhibition at 10 µM / inhibition at 100 µM: Mus musculus, Splenocyte, read-out: Percentage inhibition of cytokine production, TNF-α
Method: (§4) Anti-inflammatory activity of dysoline (1) was evaluated by inhibiting production of pro-inflammatory cytokines such as tumor necrosis factor-alpha (TNF-α) and interleukin-6 (IL-6). […] The TNF-α inhibition activity of dysoline was compared with rohitukine.
(§5) Splenocytes of male Balb/c mice were seeded into three to four wells of a 96-well flat-bottom microtiter plate (Nunc) at 2×10^6 cells/ml. Cells were incubated with different concentrations of dysoline (0.01 μM-100 μM) along with Con A (2.5 μg/well) or LPS (1 μg/ml) for 72 h at 37° C. with 5% CO2 in CO2 incubator. The culture supernatants were harvested and the measurement of cytokines (TNF-α and IL-6) in the culture supernatants was carried out using commercial kits as per manufacturer's instructions by using ELISA kits (R&D, USA) (Life Sci. 2007, 80, 1525-1538; J. Immunol. Methods 1983, 65, 55-63).

IL-6 = experiment: Inhibition of IL-6 production in splenocytes (ELISA); assay type: cell-based, male Balb/c mice; conditions: Splenocyte, mouse splenocytes, Con A or LPS, 72 h, read-out: Percentage inhibition of cytokine production, IL-6
Method: as §4, §5

[1] = system: HL-60 promyelocytic leukemia; conditions: human HL-60 promyelocytic leukemia; cited from earlier work
[2] = system: HCT-116 colon cancer cells; conditions: cited from earlier work
Water solubility = assay type: physicochemical
Stability = assay type: physicochemical

Row | SMILES | IC50 (Colo205 (colon)) [µM] | IC50 (HCT116 (colon)) [µM] | IC50 (HT1080 (fibrosarcoma); Homo sapiens, HT-1080, 48 h) [µM] | IC50 (NCIH322 (lung)) [µM] | IC50 (A549 (lung)) [µM] | IC50 (Molt-4 (leukemia)) [µM] | IC50 (HL60 (leukemia)) [µM] | inhibition at 0.01 µM (TNF-α) [%] | inhibition at 0.1 µM (TNF-α) [%] | inhibition at 1 µM (TNF-α; 1 μM) [%] | inhibition at 10 µM (TNF-α) [%] | inhibition at 100 µM (TNF-α) [%] | inhibition at 0.01 µM (IL-6) [%] | inhibition at 0.1 µM (IL-6) [%] | inhibition at 1 µM (IL-6) [%] | inhibition at 10 µM (IL-6) [%] | inhibition at 100 µM (IL-6) [%] | other results
1 | Cc1cc(=O)c2c(O)cc(O)c([C@H]3CCN(C)C[C@H]3O)c2o1 [Rohitukine, 5,7-dihydroxy-2-methyl-8-[4-(3-hydroxy-1-methyl)-piperidinyl]-4H-1-benzopyran-4-one] | > 10 | > 10 | < 10 | > 10 | > 10 | > 10 | 10 | 18 | 22 | 32 | 32 | 47 | 10 | 30 | 80 | 88 | 89 | IC50 (HT1080 (fibrosarcoma)): > 10 µM; Percentage inhibition of cytokine production, TNF-α (TNF-α; 1 μM, mouse splenocytes): 28%; cytotoxicity [1]: moderate cytotoxicity; cytotoxicity [2]: moderate cytotoxicity
2 | Cc1cc(=O)c2c(O)c(C3CCN(C)CC3O)c(O)cc2o1 (centres unmarked) [Dysoline (1), 5,7-dihydroxy-6-(3-hydroxy-1-methylpiperidin-4-yl)-2-methyl-4H-chromen-4-one] | > 10 | > 10 | 0.21 | > 10 | > 10 | > 10 | 10 | 28 | 47 | 53 | 54 | 56 | 72 | 83 | 83 | 89 | 99 | water solubility (Water solubility): good water solubility; stability (Stability): stable; melting point: 310 to 315 °C
